Test results: patent US5998433A, “Condensed compounds, their production and use” (Takeda Chemical Industries, Ltd., priority 1994, dated 1999)
Counter-ions that a name gives are not always drawn.

How the values were obtained:
[1] = system: Candida glabrata IFO 0622; experiment: Antifungal activity (agar plate dilution method), organism D; type: cell-based; settings: Nakaseomyces glabratus, IFO0622, 35° C., 20 hours, pH 7.0
Procedure: (§1) Determination of Antifungal Activity (Agar Plate Dilution Method)
(§2) RPMI 1640 (Gibco BRL) was dissolved in 0.3 M MOPS buffer, pH 7.0, to obtain a 2-fold dilution; this solution was filtered to remove germ cells (0.45 μm). Separately, 1.4% agar (Wako Pure Chemical Industries) was thermally sterilized (121° C., 15 minutes). This agar was mixed with an equal amount of the above 2-fold diluted RPMI 1640 (0.15 M MOPS, pH 7.0). To 9.9 ml of this RPMI 1640 (0.15 M MOPS, pH 7.0)-0.7% agar medium, 0.1 ml of a 100-fold diluted DMSO solution of the test drug was added; this mixture was prepared as an agar plate in a petri dish 9 cm in diameter. The drug (dissolved in DMSO to 100-fold dilution) was used in a series of 2-fold dilutions of a starting concentration of 64 μg/ml in the agar medium. For drug-free control, an agar medium containing 0.1 ml of DMSO or […] of sterile water was prepared. An inoculum of frozen cells was diluted with physiological saline and spot inoculated onto the agar medium (0.005 ml; 700-15,000 cfu) using a microplanter (Sakuma Seisakusho), followed by cultivation at 35° C. for 20 hours. Antifungal activity was assessed macroscopically; the minimum concentration for complete growth inhibition was expressed as MIC (minimum growth inhibitory concentration).

[2] = system: Candida albicans IFO 0583; experiment: Antifungal activity (agar plate dilution method), organism A; type: cell-based; settings: IFO0583, 35° C., 20 hours, pH 7.0
Procedure: as §1, §2

[3] = system: Aspergillus niger IFO 4414; experiment: Antifungal activity (agar plate dilution method), organism I; type: cell-based; settings: IFO4414, 35° C., 20 hours, pH 7.0
Procedure: as §1, §2

Candida krusei IFO 1162 = experiment: Antifungal activity (agar plate dilution method), organism F; type: cell-based; settings: Pichia kudriavzevii, IFO1162, 35° C., 20 hours, pH 7.0
Procedure: as §1, §2

Candida utilis IFO 0619 = experiment: Antifungal activity (agar plate dilution method), organism G; type: cell-based; settings: Williopsis jadinii, IFO0619, 35° C., 20 hours, pH 7.0
Procedure: as §1, §2

[4] = system: Aspergillus fumigatus IFO 6344; experiment: Antifungal activity (agar plate dilution method), organism H; type: cell-based; settings: IFO6344, 35° C., 20 hours, pH 7.0
Procedure: as §1, §2

Candida krusei IFO 0584 = experiment: Antifungal activity (agar plate dilution method), organism E; type: cell-based; settings: Pichia kudriavzevii, IFO0584, 35° C., 20 hours, pH 7.0
Procedure: as §1, §2

[5] = system: Candida tropicalis IFO 10241; experiment: Antifungal activity (agar plate dilution method), organism C; type: cell-based; settings: IFO10241, 35° C., 20 hours, pH 7.0
Procedure: as §1, §2

[6] = system: Candida tropicalis IFO 0587; experiment: Antifungal activity (agar plate dilution method), organism B; type: cell-based; settings: IFO0587, 35° C., 20 hours, pH 7.0
Procedure: as §1, §2

[7] = system: Cholesterogenesis in Rat Liver; experiment: Inhibition of cholesterogenesis in rat liver ([14C] acetic acid incorporation); type: in vivo, male Sprague-Dawley rats; settings: by stomach tube, lower values indicate higher inhibitory activity
Procedure: Inhibition of Cholesterogenesis in Rat Liver
An aqueous solution of the test drug was administered, by a stomach tube, to male Sprague-Dawley rats at 5 weeks of age; 1 hour later, [^14 C] acetic acid was intravenously administered at a dose of 10 μCi per animal. One hour later, the animals were bled, livers were excised and a portion of liver was treated with a chloroform:methanol mixture to extract lipids. After the lipid fraction was saponified, sterol was extracted with petroleum ether, precipitated using digitonin and the radioactivity in the precipitate fraction was determined using a scintillation counter. The control group orally received 0.5% methyl cellulose solution alone.
The results are shown in Table 3 (lower percent control values indicate higher cholesterol synthesis inhibitory activity).

[8] = target: T1, 2,3-oxidosqualene cyclase (Rattus norvegicus, UniProt P48450); experiment: Inhibition of 2,3-oxidosqualene cyclase activity (crude rat liver enzyme, lanosterol production, GC/Mass); type: biochemical; settings: 37° C., 20 minutes, pH 7.5; read-out: Oxidosqualene Cyclase Inhibitory Activity IC50
T1 construct: The supernatant was thus obtained as a crude enzyme solution; from tissue; host or cells: liver of male SD rat, microsome fraction solubilised with n-dodecyl beta-D-maltoside
T1 sequence (P48450 1-733): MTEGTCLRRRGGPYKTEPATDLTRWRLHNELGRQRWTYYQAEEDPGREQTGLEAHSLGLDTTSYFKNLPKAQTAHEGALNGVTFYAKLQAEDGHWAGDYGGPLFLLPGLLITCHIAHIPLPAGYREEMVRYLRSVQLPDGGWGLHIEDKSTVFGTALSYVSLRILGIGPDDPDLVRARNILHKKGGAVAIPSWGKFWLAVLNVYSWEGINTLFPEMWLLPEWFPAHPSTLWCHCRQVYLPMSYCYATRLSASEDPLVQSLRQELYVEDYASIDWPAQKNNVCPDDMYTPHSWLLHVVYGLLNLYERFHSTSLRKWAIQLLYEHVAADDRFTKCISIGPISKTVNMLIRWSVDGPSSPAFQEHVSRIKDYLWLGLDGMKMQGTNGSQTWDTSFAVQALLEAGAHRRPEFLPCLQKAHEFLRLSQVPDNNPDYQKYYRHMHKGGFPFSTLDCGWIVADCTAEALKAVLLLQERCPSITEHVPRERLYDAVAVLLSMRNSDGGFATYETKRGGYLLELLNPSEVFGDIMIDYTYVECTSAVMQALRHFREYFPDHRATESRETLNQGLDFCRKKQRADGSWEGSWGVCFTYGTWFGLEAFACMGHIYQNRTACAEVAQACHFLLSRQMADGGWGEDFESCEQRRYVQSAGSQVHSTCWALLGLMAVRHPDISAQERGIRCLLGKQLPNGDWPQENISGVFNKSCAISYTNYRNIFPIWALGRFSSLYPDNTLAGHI
Procedure: Inhibition of 2,3-oxidosqualene Cyclase Activity
1) Preparation of Crude Rat Enzyme
After a male SD rat (6 weeks of age) was sacrificed by bleeding, the liver was excised. About 50 g of the liver was washed with ice-cold physiological saline and homogenized in 75 ml of ice-cold buffer [100 mM potassium phosphate buffer (pH 7.4), 15 mM nicotinamide, 2 mM MgCl2 ] and centrifuged at 10,000×g for 20 minutes (4° C.). The resulting supernatant was further centrifuged at […] for 90 minutes (4° C.) and the resulting sediment was suspended in ice-cold 100 mM potassium phosphate buffer (pH 7.4), and again centrifuged at 105,000×g for 90 minutes (4° C.). […]
To 200 μl of a reaction mixture containing […] 2,3-oxidosqualene, 50 mM Tris-HCl (pH 7.5), 0.5 mM EDTA, 0.5 mM dithiothreitol, 0.1% Tween 80, 0.25% n-dodecyl β-D-maltoside and the test drug, the crude enzyme (protein content 40 μg) was added and incubated at 37° C. for 20 minutes. […] The resulting lanosterol was quantitated with the cholestane as internal standard (gas chromatograph: Yokogawa-Hewlett-Packard HP-5890J; column: Yokogawa-Hewlett-Packard ULTRA-1, 0.32 mm dia., 0.52μ, 10 m; mass analyzer: JEOL JMS-DX303/DA5000). […]

LDL receptor = experiment: Low-density lipoprotein (LDL) receptor-increasing activity in HepG2 cells; type: cell-based, human; settings: 20 hours, mean ± SD (n = 3)
Procedure: Determination of Low-density Lipoprotein (LDL) Receptor-increasing Activity
Human hepatoma cell line HepG2 was seeded to 96-multiwell plates (10^4 cells/well) and cultured for 5 days in Dulbecco's minimal essential medium (DMEM) medium supplemented with 10% inactivated fetal bovine serum, followed by 20 hours of pretreatment in 100 μl of DMEM medium containing 10% lipoprotein-deficient fetal bovine serum and the test compound. After being washed with Dulbecco's phosphate-buffered saline (PBS), the cells were fixed in 4% formalin at room temperature for 1 hour. Three hundreds μl of PBS containing 3% bovine serum albumin was added; the mixture was kept standing at 5° C. overnight, after which the PBS was replaced with 50 μl of PBS containing both 5 μg/ml anti-LDL receptor monoclonal antibody (Oncogene Science) and 0.5% bovine serum albumin, followed by incubation at room temperature for 2 hours. After the cells were washed with PBS containing both 0.05% Triton X-100 and 0.5% bovine serum albumin (Triton-containing PBS), 50 μl of 400-fold diluted peroxidase-labeled anti-mouse antibody (produced by BIO-RAD) was added, followed by incubation at room temperature for 1 hour. After the cells were washed with Triton-containing PBS, peroxidase activity was determined using a Peroxidase Assay Kit A (Sumitomo Bakelite Co., Ltd.). LDL receptor-inducing activity was calculated by comparing the peroxidase activity with control activity; data were analyzed for significant difference by Student's t-test. Blank determination was performed in the absence of the anti-LDL receptor monoclonal antibody.

| MIC [1] [µg/mL] | MIC [2] [µg/mL] | MIC [3] [µg/mL] | MIC (Candida krusei IFO 1162) [µg/mL] | MIC (Candida utilis IFO 0619) [µg/mL] | MIC [4] [µg/mL] | MIC (Candida krusei IFO 0584) [µg/mL] | MIC [5] [µg/mL] | MIC [6] [µg/mL] | SMILES | Cholesterol synthesis in rat liver, % of control ([7]; 30 mg/kg) [% Control] | IC50 [8] [nM] | LDL Receptor Expression (% of Control) (LDL receptor; 0.2 μM) | LDL Receptor Expression (% of Control) (LDL receptor; 2 μM, *p < 0.05) | LDL Receptor Expression (% of Control) (LDL receptor; 20 μM, *p < 0.05) | Cholesterol synthesis in rat liver, % of control ([7]; 0.3 mg/kg) [% Control] | Cholesterol synthesis in rat liver, % of control ([7]; 1.0 mg/kg) [% Control] |
| --- | --- | --- | --- | --- | --- | --- | --- | --- | --- | --- | --- | --- | --- | --- | --- | --- |
| 32 | 16 | 8 | 8 | 2 | 8 | 8 | 64 | 16 | CN(C)Cc1cc2c(o1)CN(C(=O)CCCCCc1ccccc1)CC2 [Example 5, 1-(2-dimethylaminomethyl-5,7-dihydro-4H-furo[2,3-c]pyridin-6-yl)-6-phenylhexan-1-one hydrochloride] | 48.9 | 15 | – | – | – | – | – |
| – | – | – | – | – | – | – | – | – | CN(C)Cc1cc2c(o1)CN(C(=O)c1ccc(C(=O)c3ccccc3)cc1)CC2 [Example 11, N,N-dimethyl-[6-(4-benzoylbenzoyl)-4,5,6,7-tetrahydrofuro[2,3-c]pyridin-2-ylmethyl]amine hydrochloride] | – | 84 | 113.3 ± 10.6 % of Control | 143.1 ± 19.7 % of Control | 148.9 ± 20.5 % of Control | 52.6 | 23.3 |
